Key:
hES cell lines = assay: Karyotyping; format: cell-based, human; details: HS181 12 and H1 10 passages in O3; H1 7 passages in TeSR2
Procedure: Karyotyping of the cell lines was carried out using standard Q-banding techniques. Samples of cells were treated with colcemid KaryoMAX (0.1 μg/ml; Gibco Invitrogen Corporation) for up to 4 hours, followed by dissociation with Trypsin/EDTA solution (Gibco Invitrogen Corporation). The cells were pelleted via centrifugation and re-suspended in pre-warmed 0.0375M KCl hypotonic solution and incubated for 10 minutes. Following centrifugation, the cells were resuspended in fixative (3:1 methanol:acetic acid). Metaphase spreads were prepared on glass microscope slides and G-banded by brief exposure to trypsin and stained with 4:1 Gurr's/Leishmann's stain (Sigma-Aldrich Co.). A minimum of 10 metaphase spreads were analyzed and additional 20 were counted.

human ES cells [1] = assay: Cell survival assay, 24 hours (1 day) after plating from single cell suspension; format: cell-based; details: 10 μM Y-27632, 40,000 cells per 1 cm^2, 24 hours
human ES cells [2] = assay: Cell adhesion assay, 1 hour after plating on coated plates; format: cell-based
Procedure: (§1) The assay was performed as described (Extracellular Matrix Protocols, 2000). Briefly, 96-well plates were coated by extracellular matrix proteins as described above and blocked by O3 medium containing bovine serum albumin. The ES cells were plated at a cell density of 600 cell/mm^2 upon extracellular matrix-coated plates and were left to adhere for either 1 hour or 1 day at the cell incubator. Non-adherent cells were washed away, and adherent cells were fixed for 20 min by 5% glutaraldehyde, stained by 0.1% Crystal Violet.
Briefly, 96-well plates were coated by extracellular matrix proteins as described above and blocked by O3 medium containing bovine serum albumin. The ES cells were plated at cell density of 50,000 cells/cm^2 onto extracellular matrix-coated plates and left to adhere for 1 hour in a cell incubator. After that the plates were washed 3 times with the medium to remove the non-adherent cells, and then the adherent cells were fixed for 20 minutes by 5% glutaraldehyde, stained by 0.1% Crystal Violet. (Kebo Lab, Spanga, Sweden, http://www.kebolab.se). After one hour and 3 washes with water, Crystal Violet was extracted with 10% acetic acid and quantified by measuring optical density at 570 nm. All the experiments were performed in quadruplicate.

SCID mouse = assay: Teratoma formation in SCID mice; format: in vivo; details: HS181 13, H1 12 passages in O3; H1 7 passages in TeSR2
Procedure: Teratoma formation experiments were performed by implantation of approximately 10^6 cells beneath the testicular capsule of a young (7-week-old) severe combined immunodeficiency (SCID) mouse. Three animals per each cell line were used. Teratoma growth was observed by weekly palpation, and the mice were sacrificed eight weeks after the implantation. The teratomas were fixed, and sections were stained with hematoxylin and eosin (HE) or with hematoxylin, eosin and PAS (HE-PAS). […] All animal experiments were performed at the infection-free animal facility of the Karolinska University Hospital in accordance with ethical committee approval.

hES cells = assay: In vivo imaging and migration assay; format: cell-based, human
Procedure: 24-well plates were coated by extracellular matrix proteins and blocked by O3 medium containing bovine serum albumin. The ES cells were plated at cell density of 30,000-40,000 cells/cm^2 onto extracellular matrix-coated plates and left to adhere for half an hour in a cell incubator. After that, the plate was transferred into high content imaging system Operetta (PerkinElmer) equipped with environmental control unit, which allowed to keep 37° C., 5% CO2. For two movies that were made, the brightfield images were taken once in 15 minutes during 24 hours after plating using Harmony software (PerkinElmer), exported, and analyzed using ImageJ software (NIH, the US). For migration assay the images were taken every seven minutes during 18 hours after plating. Images acquired between the fifth and seventh hours after plating were analyzed using MTrackJ plug-in (University Medical Center, Rotterdam, The Netherlands). 100 attached cells on each coating were traced and mean distances from the current to the previous point of the track were calculated. Error bars show standard error of the mean s.e.m. (n=100).

human ES cells [3] = assay: Cell survival assay, 24 hours (1 day) after plating from single cell suspension; format: cell-based; details: for adhesion / survival without additives compared with ROCK inhibitor treated cells: 1 day (24 hours) after plating; for survival / attachment of dissociated hES cells 24 hours (one day) after plating: single cell suspension, O3 medium
Procedure: as §1
The survival assay was performed as described for the cell adhesion assay above, except that the cells were left in the cell incubator for 24 hours. For inhibition of survival assay, the cells were kept in a medium with function blocking antibodies at the concentrations recommended by the manufacturer or pathway inhibitors at concentrations indicated in the text for 30 minutes, and then plated on the coated dishes. All the experiments were performed in quadruplicate.
Pluripotent hES cells express α1, α5, β1, β2 and γ1 laminin chains. To compare the adhesion and clonal survival of hES cells plated from single cell suspension to different coating substrata, hES cells growing as monolayers on LN-511 or as clusters on a feeder layer were trypsinized into single cell suspension in O3 medium and plated on cell culture dishes coated with Matrigel, LN-111, LN-511, LN-521 or a mixture of LN-511 and LN-521, in the absence or presence of a ROCK inhibitor (Y-27632) and analyzed after 24 hours.

OCT4 = assay: FACS analysis for OCT4; format: cell-based, human; details: after several single cell suspension passages, O3 medium, FIG. 9 and 10
Procedure: OCT4 expression was analyzed as described in Ludwig, T. E. et al. Derivation of human embryonic stem cells in defined conditions. Nat. Biotechnol. 24, 185-187 (2006). Cells were run on FACSCalibur Flow Cytometer (Becton Dickinson). Data were analyzed with CellQuest software (Becton Dickinson).

**Q.** With “LN-521: protein formed by joining laminin α5, β2 and γ1 chains; human recombinant, produced in HEK293 cells” as the substance, how does the karyotype (hES cell lines) read?
**A.** The karyotype was “normal”.

**Q.** And the “survival of Y-27632 treated cells compared with Matrigel” value (human ES cells [1])?
**A.** Its value is “survived better”.

**Q.** And the “adhesion of human ES cells after 1 hour” value (human ES cells [2]; O3 medium without any additives, without Y-27632, FIG. 6)?
**A.** Its value is “roughly the same”.

**Q.** What about the “spreading of the cells after one hour compared with Matrigel or LN-111” value (human ES cells [2]; dissociated hES cells, not shown) of the same substance?
**A.** The value was “clearly better”.

**Q.** And the “tissues in teratomas formed in SCID mice” value (SCID mouse)?
**A.** Its value is “all three germ lineages”.

**Q.** What about the “cell migration compared with Matrigel (imaging)” value (hES cells; 24 hours imaging) of the same substance?
**A.** The value was “much faster”.

**Q.** And the “motility of hES cells compared with other coatings” value (hES cells; between fifth and seventh hours after plating, FIG. 14)?
**A.** The value was “higher”.

**Q.** What about the “adhesion / survival without additives compared with ROCK inhibitor treated cells” value (human ES cells [3]) of the same substance?
**A.** The value was “similar”.

**Q.** And the “adhesion / survival without additives compared with ROCK inhibitor treated cells” value (human ES cells [3]; listed as LN-532)?
**A.** Its value is “no ROCK inhibitor is necessary”.

**Q.** What about the “survival of cells compared with LN-511” value (human ES cells [3]; 24 hours, no ROCK inhibitor) of the same substance?
**A.** Its value is “significantly higher”.

**Q.** What about the “cell shape 24 hours after plating on LN-521” value (human ES cells [3]; absence or presence of ROCK inhibitor) of the same substance?
**A.** Its value is “round”.

**Q.** And the “survival relative to Matrigel” value (human ES cells [3]; exogenous bFGF removed from the O3 medium)?
**A.** Its value is 20 times.

**Q.** And the “survival 24 hours after plating” value (human ES cells [3]; medium lacking all growth factors of the TeSR1 formulation (bFGF, LiCl, GABA, pipecolic acid, TGFβ))?
**A.** The value was “survived”.

**Q.** What about the “survival after 24 hours relative to LN-511” value (human ES cells [3]; no ROCK inhibitor) of the same substance?
**A.** Its value is “three”.

**Q.** And the “survival / attachment of dissociated hES cells 24 hours (one day) after plating” value (“survival / attachment” below) (human ES cells [3]; no ROCK inhibitor)?
**A.** Its value is “did so as single cells”.

**Q.** And the “survival / attachment” value (human ES cells [3]; no ROCK inhibitor, listed as human r-laminin-521)?
**A.** Its value is “survived”.

**Q.** And the “survival / attachment” value (human ES cells [3]; no ROCK inhibitor, listed as laminin-521)?
**A.** The value was “survived and started to proliferate”.

**Q.** What about the “percentage of Oct4 positive (pluripotent) cells compared with Matrigel” value (OCT4) of the same substance?
**A.** The value was “much higher percentage”.

— patent publication US9828630B2, “Methods of enhancing genetic diagnosis” (BioLamina AB, priority 2011, dated 2017)
